# Patent publication US20230085945A1, “ORTHOGONAL SAFETY SWITCHES TO ELIMINATE GENETICALLY ENGINEERED CELLS” (The Board of Trustees of the Leland Stanford Junior …, priority 2020, published 2023)
# Tests used:
# [1] = system: undifferentiated NANOG^iCasp9-YFP hPSCs; assay: Viability of undifferentiated NANOG^iCasp9-YFP hPSCs after AP20187 (FACS, alamar blue; dose and time course); type: cell-based, human
# Method: FIG. 9: Efficacy of the NANOG^iCasp9-YFP safety switch (related to FIG. 3). A) Undifferentiated NANOG^iCasp9-YFP hPSCs were treated with AP20187 at the indicated concentrations for 24 hours, and then the percentage of viable remaining cells was subsequently analyzed using FACS analysis (left) and alamar blue staining (right). For the FACS analysis, the percentage of cells shown represents viable cells (i.e., DAPI-negative cells obtained after DAPI staining) that were then gated for YFP+ (i.e., NANOG^+) cells. For the alamar blue analysis, wild-type hPSCs were used as a negative control. […] AP20187 doses equal to or greater than 100 nM may prevent efficient killing of NANOG^iCasp9-YFP hPSCs by considerably downregulating NANOG. Gene expression is depicted normalized to the reference gene YWHAZ (i.e., YWHAZ=1.0). C) Undifferentiated NANOG^iCasp9-YFP hPSCs were treated with the indicated doses of AP20187 for various lengths of time (6, 12, 24, 48, 72 hours) and then alamar blue assay was performed immediately thereafter to quantify the extent of cell death. […] D) Immunofluorescent imaging of NANOG^iCasp9-YFP hESCs in the undifferentiated state and after differentiation into day 6 sclerotome as marked by TWIST1 expression, both without and with treatment of cells with 1 nM AP20187 for 24 hours. […] The following marker genes were assessed in each respective cell-type: sclerotome (bone) progenitors (TWIST1, SOX9, PAX1, PAX9), liver progenitors (SOX17, HNF4A, AFP, TBX3), and forebrain (neural) progenitors (PAX6, FOXG1, OTX2, SIX3). F) Further validation of NANOG^iCasp9-YFP using a simulated mixed cell culture assay. NANOG^iCasp9-YFP undifferentiated hPSCs and hPSC-derived derived sclerotome cells were mixed at a 3:7 ratio, respectively. Mixed cells were treated with AP20187, and 24 hours post-treatment, FACS analysis was done to assess remaining NANOG^iCasp9-YFP hPSCs in culture.
# Alamar Blue proliferation assay—hESCs were cultured in mTeSR1 (in the presence or absence of AP20187 at the indicated concentrations). After 24 hours of AP20187 treatment, mTeSR1 media with Alamar Blue (concentration based on manufacturer's protocol) was changed for both untreated and treated samples. A control well containing media+Alamar Blue was used to assess blank wells and to therefore to measure and subtract fluorescence noise.
# Flow cytometric quantification of viable cells—NANOG^iCasp9-YFP hESCs were dissociated into single cells with Accutase and 1×10^6 cells were plated per well in a 6-well plate pre-coated with Matrigel. […] Subsequently, to quantify the percentage of surviving cells, the cultures were dissociated with TrypLE Express. […] YFP^+ (i.e., NANOG^+) cells were analyzed (Beckman Coulter CytoFlex Analyzer) to count live cells for both untreated and AP20187-treated groups. […]
# [2] = system: NANOG^iCasp9-YFP;ACTB^HSV-TK-mPlum hPSCs transplanted subcutaneously; assay: Teratoma formation after AP20 pre-treatment of dual-safeguard hPSCs; type: in vivo, NOD-SCID Il2rg^−/− mice; conditions: pre-treatment with 1 nM AP20 before transplantation
# Method: FIG. 5: Implementation of the ACTB^TK-mPlum safety switch. A) NANOG^iCasp9-YFP;ACTB^TK-mPlum hESCs were treated with ganciclovir (or left untreated) for 24 hours, and subsequently ganciclovir was withdrawn and hESCs were cultured for 1 week in mTeSR1 to detect any surviving cells and to allow them to regrow. […] N.D.=not detected. B) NANOG^iCasp9-YFP;ACTB^TK-mPlum hESCs were differentiated into day 6 liver, sclerotome and neural progenitors and treated with ganciclovir at the indicated doses for the last 24 hours of differentiation. Cell survival was analyzed by counting at day 6 of differentiation. C) 10^6 NANOG^iCasp9-YFP; ACTB^TK-mPlum hESCs engineered to express CAG-AkaLuciferase were treated with control media or 1 nM AP20187 for 24 hours, and then subcutaneously transplanted into the right and left dorsal flanks of NOD-SCID Il2rg^−/− mice (10^6 cells per flank). […] Total flux (photons/sec) was measured for each animal and were averaged.
# In vivo teratoma formation. […] Teratoma growth was monitored throughout the duration of the experiment via visual inspection and bioluminescent imaging.
# Bioluminescent imaging. […] Subsequent image analysis was done in Aura with regions of interest (ROIs) drawn for each mouse to calculate Total Flux (photons/sec) in order to quantify teratoma growth over time.
compound,measurement,setting,value
CC[C@H](C(=O)N1CCCC[C@H]1C(=O)O[C@H](CCc1ccc(OC)c(OC)c1)c1cccc(OCC(=O)NCC(CNC(=O)COc2cccc([C@@H](CCc3ccc(OC)c(OC)c3)OC(=O)[C@@H]3CCCCN3C(=O)[C@@H](CC)c3cc(OC)c(OC)c(OC)c3)c2)CN(C)C)c1)c1cc(OC)c(OC)c(OC)c1 [AP20],concentration that activates the NANOG^iCasp9-YFP system,[1],1 nM
same,duration of treatment that sufficed to eliminate hESCs,[1],12 h
same,time to activity / cell death,[1]; 1 nM AP20187,≤ 12 h
same,IC50,[1]; undifferentiated NANOG^iCasp9-YFP hPSCs,0.065 nM
same,teratoma formation in vivo,[2],prevented them from forming teratomas in vivo
